Assay results reported in a melting point compilation (Tetko et al.; mined from patent text by program, amines drawn as free bases though some values may be those of a salt).

melting point [°C]	SMILES
146 to 149	COc1ccc(-c2nc(C(F)F)oc2-c2ccc(OCCNC(N)=O)cc2)cc1
65 to 66	COc1cc(OC)c(F)c(NCc2ccccc2)c1F
78.6	CC(C)Oc1ccc(C[C@H](NC(=O)[C@@H]2CCCCN2S(=O)(=O)c2cccc(C(F)(F)F)c2)C(=O)NC2CCOCC2)cc1
136 to 137	C=C(COc1ccc(C(=O)CCC(=O)O)cc1)COc1ccc(C(C)=O)c(O)c1CCC
225 to 226	CN(c1ccc(Cl)c2cc(-c3ncc(CO)s3)[nH]c12)S(=O)(=O)c1cccs1
130 to 132	CC(C)(OCc1cc2cc(C(F)(F)F)ccc2n1S(=O)(=O)c1ccc2c(c1)OCO2)C(=O)O
214 to 217	COc1cccc2c1nc(C(F)F)n2-c1nc(N2CCOCC2)nc(N(C)c2cncnc2)n1
128 to 130	COc1cc(OC)cc(S(=O)(=O)c2ccc(N)cc2)c1
163 to 165	Cc1nc2ccc3c(c2s1)C(=O)CC3
148 to 149	CC(C)(C)OC(=O)CCc1cccc(-c2nc(=O)c3ccc(C(F)(F)F)cc3s2)n1
136	COc1ccc(C(C)(O)Cn2cc[nH]c2=O)cc1OC1CCCC1 (stereo unspecified)
241 to 242	O=C1Nc2ccccc2C(=NO)C1=O
198 to 200	CCCCNc1cc(C(=O)O)cc(S(=O)(=O)NCCCC)c1Sc1ccc(N)cc1
148	O=[N+]([O-])CC1C2(CCCC1(c1ccccc1)c1ccccc1)OCCO2 (racemic)
254 to 257	O=C1Nc2ccc(F)cc2C1c1ncnc2c1cnn2C1CCCC1 (stereo unspecified)
236 to 237	Cc1cc2c3c(ccc(N4CCCC4)c3c1)C(=O)N(O)C2=O
> 260	COc1ccc(C(=O)Nc2c(Cl)cncc2Cl)c2c1oc1ccc(NCC(=O)O)cc12
197 to 199	O=c1[nH]nc(-c2ccc3ccccc3c2)o1
179 to 186	O=C(Nc1ccc(Cl)nc1Cl)c1ccccc1O
58 to 60	C#CCOc1cc2ccccc2cc1COC(=O)C1CC1
121	C=CCOC(=O)c1cccc2c1N=C(c1ccccc1Cl)CC2=O

melting point [°C]	SMILES
128 to 130	O=C(O)c1cccc(CC2COc3ccc(OCc4ccccc4)cc3C2)c1 (single isomer, unassigned; (+))
166 to 168	Cn1c2c(ccc1=O)C(C)(N)CCC2 (stereo unspecified)
140 to 141	Cc1nc(N2CCCC(Cc3cccnc3)C2=O)sc1C(=O)NCc1ccccc1 (stereo unspecified)
128 to 129	CC(C)(C)OC(=O)N1CC[C@H](c2ccc3c(c2)OCO3)[C@@H](OCc2ccc3ccccc3c2)C1 (racemic)
193 to 195	O=C(NC1CCCn2c1nc(-c1ccncc1)cc2=O)Oc1ccccc1 (racemic)
158 to 162	Cc1ccc(C)c2c(C=O)c3ccccc3c(C=O)c12
273 to 274	Cc1c(C(=O)O)cnn1-c1nc(-c2ccc3ccccc3c2)cs1
172 to 174	Nc1c(-c2ccc(Cl)cc2Cl)nnn1Cc1ccc(O)cc1
117	CCCN(CCC(O)c1csc2ccc(F)cc12)C1COc2c(F)ccc(C(N)=O)c2C1 (stereo unspecified)
131 to 134	CN1CCC(C(=NNc2ccccc2)c2ccccc2F)CC1
159 to 161	CC(=O)c1cccc2c(=O)c(C)c(-c3ccccc3)oc12
112 to 114	Cc1ccc(S(=O)(=O)n2cc(I)nc2C)cc1
184	O=C(NC(=O)N1C(=O)Cc2ccccc21)c1ccccc1
180 to 181	Cc1oc(-c2ccccc2)nc1COc1ccc(Sc2nc(CC(=O)O)cs2)cc1
166 to 169	Oc1ccccc1-c1ccc2nonc2c1
> 250	C=CCOC(=O)c1[nH]c2cc(Cl)cc(Cl)c2c1C=C1NC(=O)N(c2ccccc2)C1=O
138 to 140	COC(=O)C(CO)N(Cc1ccccc1N)S(=O)(=O)c1ccc(OC)cc1 (stereo unspecified)
123	Nc1cc2c(cc1Oc1ccc(F)cc1)CCC2
214 to 216	CN(C)C(=O)c1cc(C(=O)O)c2cc(Cc3ccc(F)cc3)cnc2c1O
216 to 217	O=C1Nc2ccccc2Sc2cc(C(F)(F)F)ccc21

More lines, now with the values behind:

SMILES	melting point [°C]
NC(=O)c1nnn(Cc2ccc(Cl)c(Cl)c2)c1N	221 to 222
CCCS(=O)(=O)NC(=O)CCc1cc(OC(C)C)nn1Cc1ccc(Cl)cc1Cl	124 to 126
CCc1[nH]nc2c1C(=O)c1c(NC(=O)NN3CCOCC3)cccc1-2	253 to 254
Cc1cc(Cc2cnc(N)nc2N)cc(C)c1N	258 to 260
COc1cc(C)cc(OC)c1CCCCCNC(=O)[C@@H](CCCCN)NC(=O)c1cc2ccccc2n1CC(=O)O	173
[N-]=[N+]=NCC1Cc2cc(I)c3[nH]c(=O)ccc3c2O1 (stereo unspecified)	175
O=c1c(CO)cnc2c3ccccc3ccn12	198
O=C(Nc1ccc(C(=O)N2Cc3cccnc3Oc3ccccc32)cn1)c1ccccc1-c1ccccc1	107 to 114
S=C1c2cccnc2N(c2ccccc2)C2=NCCN12	293 to 296
C[C@H](NC(=O)Cc1ccccc1)C(=O)O	102 to 104
O=c1cc(CO)n2c(n1)COc1ccccc1-2	235 to 237
CC(=O)NC[C@H]1CN(c2ccc(N3CCC(C)(O)CC3)c(F)c2)C(=O)O1	180 to 182
COc1ccc(-c2c(C(=O)c3ccccc3)c(C)nc3cc(OC)c(OC)cc23)cc1OC	151 to 152
O=C(O)c1c[nH]c(Cl)c1	175 to 178
CC(O)c1ccc(Cl)c(Cl)c1Cl (stereo unspecified)	87 to 89
N#Cc1cnn(-c2ccc(Cl)c(Cl)c2Cl)c1NC(=O)CCCCl	173 to 174
CC(=O)Nc1ccc(S(=O)(=O)c2ccc(Br)cc2)cc1	195 to 199
Cc1c(-c2c(F)cc(Cl)c(=O)n2C)nn(C)c1C#N	190 to 191
ON=Cc1ccncc1	180 to 182
Cc1cc(C)c(-n2c(C)cc(C)c(C#N)c2=O)cc1NS(=O)(=O)C(F)(F)F	274 to 276

SMILES	melting point [°C]
Cc1c(C(=O)c2ccccc2)c(NC(=O)CI)cn1C	135 to 137
CCOC(=O)C1=C(C)NC(COC(=O)c2ccccc2)=C(C(=O)OCC)C1c1ccccc1[N+](=O)[O-] (stereo unspecified)	156 to 157
Cc1ccc2c(c1C)C(=O)C(=O)N2	225 to 226
CCCCOC(=O)C1CC(n2cnc3c(N)ncnc32)C(O)C1O (stereo unspecified)	173 to 175
Cc1noc(NS(=O)(=O)c2ccc(Br)cc2)c1Br	146 to 149
CC(C)(C)c1cc(C=C2SC(=S)N(C3CC3)C2=O)cc(C(C)(C)C)c1O	158 to 168
C[C@@H]1CN(CC=CC(=O)Nc2cc3c(Nc4ccc(F)c(Cl)c4)ncnc3cc2O[C@@H]2CCOC2)CC(=O)O1	230
Cc1cccc(N2C(=S)SCC2(C)O)n1 (stereo unspecified)	150 to 153
COC(=O)c1cc(C(=O)O)c2c(Cl)cc(Cl)cc2n1	260 to 262
COC(=O)[C@H](CC(C)C)NC(=O)[C@@H](CCSC)NC(=O)OC(C)(C)C	61 to 64
O=C(O)c1ccnc(NC(=O)C(CS)Cc2ccccc2)c1 (stereo unspecified)	234 to 236
CC(=O)Nc1ccc2nc(NC3=NCCN3)[nH]c2c1	294
N#Cc1ccc2c(c1)C(=O)CC1(CCCCC1)O2	92 to 93
CCCCCCCCCC(=O)Nc1ccc(S(=O)(=O)Nc2nnc(CO)s2)cc1	69 to 70
CCc1nc2cccc(C)c2c(=O)n1-c1ccc(F)cc1	170
COc1ccc(-c2cc(-c3ccc(-c4c(Cc5ccccc5)sc5ccccc45)cc3)cc(Br)c2OCC(=O)O)cc1OC	103 to 105
CCCn1c(=O)c2[nH]c(/C=C/c3cc(OC)c(OCc4ccccc4)c(OC)c3)nc2n(CCC)c1=O	221
O=C1CCCCCC1c1ncc[nH]1 (stereo unspecified)	68 to 69
CCOC(CNC(=S)Nc1ccccn1)OCC	132 to 133
O=C(CBr)Nc1cc(F)ccc1C(=O)O	166 to 168

SMILES	melting point [°C]
CC1(C)CC(O)CC(C)(C)N1CC(O)CO (stereo unspecified)	97 to 99
CN(C)C(=O)C1CCC2C(=O)N(c3ccccc3)C(=O)N12 (stereo unspecified)	172 to 174
Cc1cc(Oc2ncc(C(F)(F)F)cc2Cl)nn1C(=O)N(C)C	102 to 104
COC(=O)C1CC(=O)NC(Cc2ccccc2)C1=O (stereo unspecified)	146 to 148
COc1ccccc1[C@@]1(O)[C@H](O)CC(c2ccccc2)(c2ccccc2)[C@@H]2CN(C(=O)Cc3ccccc3N(C)C)C[C@@H]21 (racemic)	175 to 177
CC1=CC(=O)C(C(=O)Cc2ccccc2)C(=O)O1 (stereo unspecified)	150 to 151
CNC=C(C(=O)C=Cc1ccc(Cl)cc1)C(=O)OC	114 to 116
COC12CC(CNC(=S)NC(C)=O)CN(C)C1Cc1c[nH]c3cccc2c13 (stereo unspecified)	212 to 214
CCc1c(Oc2ncc(C(F)(F)F)cc2Cl)n[nH]c1C	74 to 75
Cc1c(-c2ccccc2)oc2c(C(=O)NCCCCl)cccc2c1=O	193 to 194
Cc1sc(CCc2ccc(C=O)cc2)nc1-c1ccccc1	66 to 67
Cc1ccccc1-c1nc(-c2ccccc2Cl)sc1-c1ccc(S(C)(=O)=O)cc1	156 to 157
CC1CC(=O)NN=C1c1ccc(N2CCC(C(=O)O)CC2)c([N+](=O)[O-])c1 (stereo unspecified)	214
O=C(O)CCCCCCCCn1nc(-c2ccccc2)c(-c2ccccc2)n1	84 to 85
CCCOCCOc1cccc(-c2ccc3c(c2)C=C(C(=O)Nc2ccc(CN(C)C4CCOCC4)cc2)CCS3(=O)=O)c1	166 to 167
CCOC(=O)c1c(CC)nc2c(C(F)(F)F)cccc2c1O	129
N#Cc1ccc(CC(NC(=O)OCc2ccccc2)C(=O)Nc2cccc(C(=O)NCCC(=O)OCc3ccccc3)c2)cc1 (racemic)	145 to 146
ClCc1nc(Cl)c2ccccc2n1	99 to 101
CC(=O)NCCC1CCc2ccc3nc(CO)oc3c21 (stereo unspecified)	132 to 134
CCCSc1nc(C)nc(S)c1[N+](=O)[O-]	162 to 164
